# Experimental data reported in PubChem BioAssay (NCI).
#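 1) Cells in 96-well plates. 2) Compound, 48 h, 5 concentrations. 3) Linear interpolation between surrounding doses. 4) Unreached endpoint = highest concentration. GI50 = concentration required for 50% inhibition of growth. TGI: total growth inhibition.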
# Experiments:
# Experiment in all cases: growth of human tumour cells (NCI), 48 h
# OVCAR-8 ovarian = system: OVCAR-8 ovarian
# NCI-H23 lung = system: NCI-H23 lung
# SK-OV-3 ovarian = system: SK-OV-3 ovarian
# IGROV1 ovarian = system: IGROV1 ovarian
# OVCAR-5 ovarian = system: OVCAR-5 ovarian
# UACC-62 melanoma = system: UACC-62 melanoma
# SF-295 CNS = system: SF-295 CNS
# DU-145 prostate = system: DU-145 prostate
# SK-MEL-5 melanoma = system: SK-MEL-5 melanoma
# OVCAR-3 ovarian = system: OVCAR-3 ovarian
# UACC-257 melanoma = system: UACC-257 melanoma
# HCT-15 colon = system: HCT-15 colon
# EKVX NSCLC = system: EKVX NSCLC
# HS 578T breast = system: HS 578T breast
# NCI/ADR-RES ovarian = system: NCI/ADR-RES ovarian
# SNB-19 CNS = system: SNB-19 CNS
# A498 renal = system: A498 renal
# 786-0 renal = system: 786-0 renal
# MDA-MB-435 = system: MDA-MB-435
# SW-620 colon = system: SW-620 colon
# SN12C renal = system: SN12C renal
# HOP-92 NSCLC = system: HOP-92 NSCLC
# M14 melanoma = system: M14 melanoma
# SK-MEL-2 melanoma = system: SK-MEL-2 melanoma
# NCI-H460 lung = system: NCI-H460 lung
# MALME-3M melanoma = system: MALME-3M melanoma
# HCT-116 colon = system: HCT-116 colon
# PC-3 prostate = system: PC-3 prostate
# MCF7 breast = system: MCF7 breast
# NCI-H522 lung = system: NCI-H522 lung
# NCI-H226 lung = system: NCI-H226 lung
# RXF 393 renal = system: RXF 393 renal
# KM12 colon = system: KM12 colon
# CAKI-1 renal = system: CAKI-1 renal
# SK-MEL-28 melanoma = system: SK-MEL-28 melanoma
# U251 CNS = system: U251 CNS
# ACHN renal = system: ACHN renal
# T-47D breast = system: T-47D breast
# SF-539 CNS = system: SF-539 CNS
# OVCAR-4 ovarian = system: OVCAR-4 ovarian
# HOP-62 NSCLC = system: HOP-62 NSCLC
# BT-549 breast = system: BT-549 breast
# HCC-2998 colon = system: HCC-2998 colon
# HT29 colon = system: HT29 colon
# LOX IMVI melanoma = system: LOX IMVI melanoma
# CCRF-CEM leukemia = system: CCRF-CEM leukemia
# RPMI-8226 leukemia = system: RPMI-8226 leukemia
# SF-268 CNS = system: SF-268 CNS
# MDA-MB-231 breast = system: MDA-MB-231 breast
# HL-60(TB) leukemia = system: HL-60(TB) leukemia
# COLO 205 colon = system: COLO 205 colon
# SNB-75 CNS = system: SNB-75 CNS
# A549 NSCLC = system: A549 NSCLC
# MOLT-4 leukemia = system: MOLT-4 leukemia
# TK-10 renal = system: TK-10 renal
# UO-31 renal = system: UO-31 renal
# K-562 leukemia = system: K-562 leukemia
smiles,measurement,setting,value
COc1ccc(C(=O)COc2cccc(/C=C3\CSc4ccc(Cl)cc4C3=O)c2)cc1,GI50,OVCAR-8 ovarian,9.35 µM
same,TGI,OVCAR-8 ovarian,56.3 µM
same,GI50,NCI-H23 lung,14.2 µM
same,TGI,NCI-H23 lung,35 µM
same,GI50,SK-OV-3 ovarian,25.9 µM
same,TGI,SK-OV-3 ovarian,> 100 µM
same,TGI,IGROV1 ovarian,11.6 µM
same,GI50,OVCAR-5 ovarian,17 µM
same,TGI,OVCAR-5 ovarian,34.2 µM
same,GI50,UACC-62 melanoma,6.23 µM
same,TGI,UACC-62 melanoma,21 µM
same,GI50,SF-295 CNS,11.3 µM
same,TGI,SF-295 CNS,28.7 µM
same,GI50,DU-145 prostate,12.7 µM
same,TGI,DU-145 prostate,25.3 µM
same,GI50,SK-MEL-5 melanoma,3.93 µM
same,TGI,SK-MEL-5 melanoma,18.5 µM
same,GI50,OVCAR-3 ovarian,8.86 µM
same,TGI,OVCAR-3 ovarian,21.2 µM
same,GI50,UACC-257 melanoma,12.6 µM
same,TGI,UACC-257 melanoma,33.4 µM
same,GI50,HCT-15 colon,1.83 µM
same,TGI,HCT-15 colon,4.36 µM
same,GI50,EKVX NSCLC,15.3 µM
same,TGI,EKVX NSCLC,52 µM
same,GI50,HS 578T breast,3.55 µM
same,TGI,HS 578T breast,31.7 µM
same,GI50,NCI/ADR-RES ovarian,11.4 µM
same,TGI,NCI/ADR-RES ovarian,29.9 µM
same,GI50,SNB-19 CNS,6.99 µM
same,TGI,SNB-19 CNS,20.1 µM
same,GI50,A498 renal,36.5 µM
same,TGI,A498 renal,> 100 µM
same,GI50,786-0 renal,15.6 µM
same,TGI,786-0 renal,29.8 µM
same,GI50,MDA-MB-435,3.48 µM
same,TGI,MDA-MB-435,17 µM
same,GI50,SW-620 colon,1.82 µM
same,TGI,SW-620 colon,4.1 µM
same,GI50,SN12C renal,8.16 µM
same,TGI,SN12C renal,25.7 µM
same,GI50,HOP-92 NSCLC,1.28 µM
same,TGI,HOP-92 NSCLC,19.8 µM
same,GI50,M14 melanoma,13.4 µM
same,TGI,M14 melanoma,31.6 µM
same,GI50,SK-MEL-2 melanoma,11.7 µM
same,TGI,SK-MEL-2 melanoma,25.1 µM
same,GI50,NCI-H460 lung,16.2 µM
same,TGI,NCI-H460 lung,34.9 µM
same,GI50,MALME-3M melanoma,11.6 µM
same,TGI,MALME-3M melanoma,32 µM
same,GI50,HCT-116 colon,1.94 µM
same,TGI,HCT-116 colon,4.3 µM
same,GI50,PC-3 prostate,3.97 µM
same,TGI,PC-3 prostate,20.4 µM
same,GI50,MCF7 breast,1.5 µM
same,TGI,MCF7 breast,11.3 µM
same,GI50,NCI-H522 lung,2.07 µM
same,TGI,NCI-H522 lung,4.9 µM
same,GI50,NCI-H226 lung,14.4 µM
same,TGI,NCI-H226 lung,62.8 µM
same,GI50,RXF 393 renal,1.14 µM
same,TGI,RXF 393 renal,7.1 µM
same,GI50,KM12 colon,2.28 µM
same,TGI,KM12 colon,5.57 µM
same,GI50,CAKI-1 renal,12.4 µM
same,TGI,CAKI-1 renal,25.1 µM
same,GI50,SK-MEL-28 melanoma,15.4 µM
same,TGI,SK-MEL-28 melanoma,29 µM
same,GI50,U251 CNS,2.13 µM
same,TGI,U251 CNS,4.59 µM
same,GI50,ACHN renal,11.9 µM
same,TGI,ACHN renal,24.6 µM
same,GI50,T-47D breast,5.4 µM
same,TGI,T-47D breast,28.9 µM
same,GI50,SF-539 CNS,16.2 µM
same,TGI,SF-539 CNS,30.7 µM
same,GI50,OVCAR-4 ovarian,11.7 µM
same,TGI,OVCAR-4 ovarian,28.4 µM
same,GI50,HOP-62 NSCLC,19.5 µM
same,TGI,HOP-62 NSCLC,47.3 µM
same,GI50,BT-549 breast,12.9 µM
same,TGI,BT-549 breast,33.5 µM
same,GI50,HCC-2998 colon,15.5 µM
same,TGI,HCC-2998 colon,30 µM
same,GI50,HT29 colon,3.32 µM
same,TGI,HT29 colon,11.4 µM
same,GI50,LOX IMVI melanoma,1.79 µM
same,TGI,LOX IMVI melanoma,3.48 µM
same,GI50,CCRF-CEM leukemia,1.82 µM
same,TGI,CCRF-CEM leukemia,5.41 µM
same,GI50,RPMI-8226 leukemia,0.214 µM
same,TGI,RPMI-8226 leukemia,3.51 µM
same,GI50,SF-268 CNS,14.9 µM
same,TGI,SF-268 CNS,30.3 µM
same,GI50,MDA-MB-231 breast,14.2 µM
same,TGI,MDA-MB-231 breast,64.3 µM
same,GI50,HL-60(TB) leukemia,2.18 µM
same,TGI,HL-60(TB) leukemia,7.21 µM
same,GI50,COLO 205 colon,14.1 µM
same,TGI,COLO 205 colon,29 µM
same,GI50,SNB-75 CNS,16.5 µM
same,TGI,SNB-75 CNS,37.2 µM
same,GI50,A549 NSCLC,64 µM
same,TGI,A549 NSCLC,> 100 µM
same,GI50,MOLT-4 leukemia,2.25 µM
same,TGI,MOLT-4 leukemia,5.53 µM
same,GI50,TK-10 renal,19.7 µM
same,TGI,TK-10 renal,41.4 µM
same,GI50,UO-31 renal,11.5 µM
same,TGI,UO-31 renal,25.5 µM
C=C1CC2(CCCC3(CC(=C)C(=O)O3)C2(C)C)OC1=O (configuration not stated),TGI,OVCAR-8 ovarian,7.55 µM
same,TGI,NCI-H23 lung,12.1 µM
same,TGI,SK-OV-3 ovarian,46.2 µM
same,TGI,IGROV1 ovarian,23.5 µM
same,TGI,OVCAR-5 ovarian,3.33 µM
same,TGI,UACC-62 melanoma,4.65 µM
same,TGI,SF-295 CNS,33.8 µM
same,TGI,DU-145 prostate,15.8 µM
same,TGI,K-562 leukemia,13.7 µM
same,TGI,SK-MEL-5 melanoma,31.8 µM
same,TGI,OVCAR-3 ovarian,6.78 µM
same,TGI,UACC-257 melanoma,5.78 µM
same,TGI,HCT-15 colon,1.99 µM
same,TGI,EKVX NSCLC,18.4 µM
same,TGI,HS 578T breast,58 µM
same,TGI,NCI/ADR-RES ovarian,27.9 µM
same,TGI,SNB-19 CNS,32.9 µM
same,TGI,A498 renal,41.9 µM
same,TGI,786-0 renal,11.4 µM
same,TGI,MDA-MB-435,10.1 µM
same,TGI,SW-620 colon,4.26 µM
same,TGI,SN12C renal,10.7 µM
same,TGI,HOP-92 NSCLC,19.3 µM
same,TGI,M14 melanoma,8.58 µM
same,TGI,SK-MEL-2 melanoma,27.7 µM
same,TGI,NCI-H460 lung,46.3 µM
same,TGI,MALME-3M melanoma,3.61 µM
same,TGI,HCT-116 colon,5.22 µM
same,TGI,PC-3 prostate,21.1 µM
same,TGI,MCF7 breast,63.7 µM
same,TGI,NCI-H522 lung,3.7 µM
same,TGI,NCI-H226 lung,6.57 µM
same,TGI,RXF 393 renal,31 µM
same,TGI,KM12 colon,21.8 µM
same,TGI,CAKI-1 renal,7.43 µM
same,TGI,SK-MEL-28 melanoma,4.61 µM
same,TGI,U251 CNS,4.56 µM
same,TGI,ACHN renal,2.4 µM
same,TGI,T-47D breast,21.3 µM
same,TGI,SF-539 CNS,11.4 µM
same,TGI,OVCAR-4 ovarian,20.2 µM
same,TGI,HOP-62 NSCLC,30.8 µM
same,TGI,BT-549 breast,17 µM
same,TGI,HT29 colon,15 µM
same,TGI,LOX IMVI melanoma,3.77 µM
same,TGI,CCRF-CEM leukemia,5.74 µM
same,TGI,RPMI-8226 leukemia,3.57 µM
same,TGI,SF-268 CNS,55.5 µM
same,TGI,MDA-MB-231 breast,17.7 µM
same,TGI,HL-60(TB) leukemia,5.65 µM
same,TGI,COLO 205 colon,4.61 µM
same,TGI,SNB-75 CNS,34.4 µM
same,TGI,A549 NSCLC,28.9 µM
same,TGI,MOLT-4 leukemia,1.03 µM
same,TGI,TK-10 renal,6.31 µM
same,TGI,UO-31 renal,9.53 µM
